In ChEMBL document CHEMBL4699452, “Design, synthesis, and optimization of a series of 2-azaspiro[3.3]heptane derivatives as orally bioavailable fetal hemoglobin inducers” (Bioorg Med Chem Lett, 2020):
Activity calls are given as the source filed them. The calls are words filed in the database; no cut-off is given here.

Tests used:
[1] = Induction of fetal hemoglobin in human bone marrow derived CD34+ cells incubated for 5 days by FITC staining based flow cytometry analysis; format: functional, tissue-based; conditions: cd34-positive (myeloid/lymphoid) cell
[2] = Metabolic stability in human liver microsomes assessed as parent compound remaining at 0.5 mg/mL incubated for 0.5 hrs; format: ADME, Microsome; conditions: read-out: Stabilty
[3] = Metabolic stability in monkey liver microsomes assessed as parent compound remaining at 0.5 mg/mL incubated for 0.5 hrs; format: ADME, Macaca mulatta, Microsome; conditions: rhesus monkey, read-out: Stabilty
[4] = Cmax in monkey at 10 mg/kg, po; format: ADME, organism-based, Macaca mulatta; parameters: route oral, dose 10 mg/kg; conditions: rhesus monkey, in vivo
[5] = Solubility of the compound in pH 6.8 JP2 fluid; format: physicochemical
[6] = Half life in monkey at 10 mg/kg, po; format: ADME, organism-based, Macaca mulatta; conditions: rhesus monkey, in vivo
[7] = AUClast in monkey at 10 mg/kg, po; format: ADME, organism-based, Macaca mulatta; parameters: route oral, time 0 - last, dose 10 mg/kg; conditions: rhesus monkey, in vivo
[8] = target: T1, CYP3A4 (Homo sapiens, UniProt P08684); assay: Inhibition of CYP3A4 (unknown origin) at 10 uM relative to control; format: ADME
[9] = Protein binding in monkey plasma; format: ADME, cell-free, Macaca mulatta; conditions: rhesus monkey, read-out: PPB (converted)
[10] = Induction of fetal hemoglobin in human bone marrow derived CD34+ cells assessed as maximum efficacy incubated for 5 days by FITC staining based flow cytometry analysis relative to decitabine; format: functional; conditions: CD34-positive (myeloid/lymphoid) cell, 120 h, time 5 day
[11] = Solubility of the compound in pH 1.2 JP1 fluid; format: physicochemical
[12] = target: CYP2D6 (Homo sapiens, UniProt P10635); assay: Inhibition of CYP2D6 (unknown origin) at 10 uM relative to control; format: ADME
[13] = target: hERG (KCNH2) (Homo sapiens, UniProt Q12809); assay: Inhibition of human ERG at 10 uM relative to control
[14] = Genotoxicity in Salmonella typhimurium by Ames test; format: toxicity; conditions: salmonella enterica subsp. enterica serovar typhimurium
[15] = target: T1, CYP3A4; assay: Mechanism based inhibition of CYP3A4 in human liver microsomes assessed as remaining percentage at 100 uM in presence of substrate incubated for 30 mins relative to control; format: ADME; conditions: read-out: Activity
[16] = target: T2, CYP1A2 (Homo sapiens, UniProt P05177); assay: Inhibition of CYP1A2 (unknown origin) at 10 uM relative to control; format: ADME
T2 sequence (P05177 whole entry): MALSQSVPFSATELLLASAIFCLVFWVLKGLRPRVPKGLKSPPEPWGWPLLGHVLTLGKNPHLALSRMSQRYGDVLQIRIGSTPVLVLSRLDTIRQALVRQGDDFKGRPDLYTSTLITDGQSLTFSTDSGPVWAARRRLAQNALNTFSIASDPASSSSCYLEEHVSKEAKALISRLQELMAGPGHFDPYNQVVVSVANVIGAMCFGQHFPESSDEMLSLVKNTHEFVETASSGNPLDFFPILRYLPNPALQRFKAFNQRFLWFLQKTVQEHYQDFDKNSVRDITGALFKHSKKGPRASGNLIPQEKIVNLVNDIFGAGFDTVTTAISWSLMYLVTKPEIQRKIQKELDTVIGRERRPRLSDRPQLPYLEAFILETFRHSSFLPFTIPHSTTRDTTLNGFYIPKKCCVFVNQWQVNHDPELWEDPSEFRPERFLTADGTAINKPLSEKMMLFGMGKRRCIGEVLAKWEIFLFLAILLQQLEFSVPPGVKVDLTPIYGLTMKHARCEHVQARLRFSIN

[17] = target: CYP2C9 (Homo sapiens, UniProt P11712); assay: Inhibition of CYP2C9 (unknown origin) at 10 uM relative to control; format: ADME
[18] = Half life in monkey at 1 mg/kg, po; format: ADME, organism-based, Macaca mulatta; conditions: rhesus monkey, in vivo
[19] = Cytotoxicity against human bone marrow derived CD34+ cells assessed as effect on cell viability at 0.47 to 15 uM by propidium iodide staining based assay; conditions: cd34-positive (myeloid/lymphoid) cell, dose 0.47-15 µM
[20] = AUClast in monkey at 1 mg/kg, po; format: ADME, organism-based, Macaca mulatta; parameters: route oral, time 0 - last, dose 1 mg/kg; conditions: rhesus monkey, in vivo
[21] = Cmax in monkey at 1 mg/kg, po; format: ADME, organism-based, Macaca mulatta; parameters: route oral, dose 1 mg/kg; conditions: rhesus monkey, in vivo
[22] = Toxicity in cynomolgus monkey assessed as transient hypoglycemia at 30 mg/kg, po qd administered for 6 consecutive days; format: organism-based, Macaca fascicularis; conditions: in vivo, 144 h, time 6 day
[23] = tested on: Macaca fascicularis; assay: In vivo induction of fetal hemoglobin in cynomolgus monkey assessed as gamma-globin gene expression at 30 mg/kg, po qd administered for 6 consecutive days by RT-qPCR analysis; format: functional, organism-based; conditions: time 6.0 day
[24] = Cytotoxicity against human bone marrow derived CD34+ cells assessed as effect on cell viability at 15 uM by propidium iodide staining based assay relative to control; parameters: species or system CD34-positive (myeloid/lymphoid) cell; conditions: read-out: Activity
[25] = tested on: Macaca fascicularis; assay: In vivo induction of fetal hemoglobin in po dosed cynomolgus monkey assessed as gamma-globin gene expression administered twice for 6 consecutive days by RT-qPCR analysis; format: functional, organism-based; conditions: dose mg/kg 15-30, time 6.0 day

T1 sequence (P08684 whole entry): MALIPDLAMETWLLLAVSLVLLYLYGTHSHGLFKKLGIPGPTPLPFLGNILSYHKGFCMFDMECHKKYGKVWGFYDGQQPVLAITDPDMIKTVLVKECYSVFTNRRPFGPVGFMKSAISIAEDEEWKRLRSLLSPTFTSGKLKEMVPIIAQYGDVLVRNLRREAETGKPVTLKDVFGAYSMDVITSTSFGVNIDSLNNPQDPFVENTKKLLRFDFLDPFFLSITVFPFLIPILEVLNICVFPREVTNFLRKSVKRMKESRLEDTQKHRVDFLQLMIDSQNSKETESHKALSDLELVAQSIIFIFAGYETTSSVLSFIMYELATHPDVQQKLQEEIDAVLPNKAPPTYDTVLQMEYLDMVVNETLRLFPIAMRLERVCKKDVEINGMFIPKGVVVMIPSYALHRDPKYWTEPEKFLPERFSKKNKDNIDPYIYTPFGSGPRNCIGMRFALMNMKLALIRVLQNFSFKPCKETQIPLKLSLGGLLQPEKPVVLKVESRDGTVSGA
CYP2D6, sequence (P10635 whole entry): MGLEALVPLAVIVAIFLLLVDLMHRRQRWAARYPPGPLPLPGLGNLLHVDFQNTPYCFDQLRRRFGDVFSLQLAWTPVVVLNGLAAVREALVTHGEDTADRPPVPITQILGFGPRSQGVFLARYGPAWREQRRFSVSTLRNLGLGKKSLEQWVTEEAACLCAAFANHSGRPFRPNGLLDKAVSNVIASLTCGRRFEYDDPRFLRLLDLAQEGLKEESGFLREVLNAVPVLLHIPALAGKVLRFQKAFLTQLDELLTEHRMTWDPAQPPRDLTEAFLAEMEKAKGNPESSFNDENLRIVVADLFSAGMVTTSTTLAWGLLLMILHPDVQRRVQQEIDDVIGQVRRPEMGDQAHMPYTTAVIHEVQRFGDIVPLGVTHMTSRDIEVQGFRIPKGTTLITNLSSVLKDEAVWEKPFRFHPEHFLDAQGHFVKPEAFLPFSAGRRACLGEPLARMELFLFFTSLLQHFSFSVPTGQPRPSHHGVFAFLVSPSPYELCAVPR
CYP2C9, sequence (P11712 whole entry): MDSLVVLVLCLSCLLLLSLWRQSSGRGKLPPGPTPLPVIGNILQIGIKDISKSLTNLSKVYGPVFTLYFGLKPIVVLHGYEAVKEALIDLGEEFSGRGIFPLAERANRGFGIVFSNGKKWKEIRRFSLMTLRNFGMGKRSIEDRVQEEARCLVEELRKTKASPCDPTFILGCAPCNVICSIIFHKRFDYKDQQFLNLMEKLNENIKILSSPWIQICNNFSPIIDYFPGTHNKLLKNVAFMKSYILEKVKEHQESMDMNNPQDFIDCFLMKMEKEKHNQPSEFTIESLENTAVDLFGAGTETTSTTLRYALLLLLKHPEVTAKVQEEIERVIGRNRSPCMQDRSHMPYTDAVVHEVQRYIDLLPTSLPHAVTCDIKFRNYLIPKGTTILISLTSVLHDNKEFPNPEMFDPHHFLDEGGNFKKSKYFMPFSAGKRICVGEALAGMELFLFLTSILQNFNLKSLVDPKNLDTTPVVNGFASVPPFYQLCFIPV
hERG (KCNH2), sequence (Q12809 whole entry): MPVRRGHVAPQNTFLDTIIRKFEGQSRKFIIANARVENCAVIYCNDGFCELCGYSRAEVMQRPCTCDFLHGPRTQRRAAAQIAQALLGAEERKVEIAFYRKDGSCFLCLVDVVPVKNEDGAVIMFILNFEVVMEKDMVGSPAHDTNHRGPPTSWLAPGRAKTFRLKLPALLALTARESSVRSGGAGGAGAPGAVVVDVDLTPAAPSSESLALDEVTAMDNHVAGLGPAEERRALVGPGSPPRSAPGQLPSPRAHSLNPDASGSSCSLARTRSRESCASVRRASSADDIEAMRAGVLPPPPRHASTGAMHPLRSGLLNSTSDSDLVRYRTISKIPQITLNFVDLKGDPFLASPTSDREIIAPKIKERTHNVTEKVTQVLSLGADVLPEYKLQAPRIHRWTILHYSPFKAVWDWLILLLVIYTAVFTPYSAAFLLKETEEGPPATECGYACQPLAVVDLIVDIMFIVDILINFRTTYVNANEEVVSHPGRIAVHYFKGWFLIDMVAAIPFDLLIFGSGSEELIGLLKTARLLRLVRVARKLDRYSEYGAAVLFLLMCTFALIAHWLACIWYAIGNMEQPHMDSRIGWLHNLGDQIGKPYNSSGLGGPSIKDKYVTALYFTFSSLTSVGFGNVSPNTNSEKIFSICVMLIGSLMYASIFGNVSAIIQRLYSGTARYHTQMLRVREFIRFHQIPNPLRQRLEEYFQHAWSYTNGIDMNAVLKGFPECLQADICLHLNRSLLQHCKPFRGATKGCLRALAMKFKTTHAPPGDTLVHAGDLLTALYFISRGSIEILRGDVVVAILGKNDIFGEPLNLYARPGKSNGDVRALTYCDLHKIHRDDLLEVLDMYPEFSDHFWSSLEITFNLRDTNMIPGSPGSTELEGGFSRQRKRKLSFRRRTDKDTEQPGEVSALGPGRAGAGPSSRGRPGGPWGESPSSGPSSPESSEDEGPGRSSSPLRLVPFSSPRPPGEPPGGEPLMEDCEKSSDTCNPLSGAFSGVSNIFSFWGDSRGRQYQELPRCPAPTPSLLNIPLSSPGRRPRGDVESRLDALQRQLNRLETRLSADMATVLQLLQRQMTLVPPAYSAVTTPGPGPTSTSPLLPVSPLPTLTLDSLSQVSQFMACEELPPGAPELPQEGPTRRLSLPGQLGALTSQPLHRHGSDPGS

| Structure (SMILES) | EC50 [1] | remaining at 0.5 h [2] | remaining at 0.5 h [3] | Emax [10] | also measured |
| --- | --- | --- | --- | --- | --- |
| CN(C)C(=O)CCNC(=O)c1csc(-c2ccc(F)cc2)n1 | > 5 µM | 53% | 0.1% | – | – |
| CN(C)C(=O)CCN1CCc2c(cc(-c3ccc(F)cc3)n2C)C1=O | > 5 µM | > 100% | 42% | – | – |
| CN(C)C(=O)CCNC(=O)c1cc(-c2cccc(F)c2)no1 | > 5 µM | > 100% | 55% | – | – |
| CN(C)C(=O)CCNC(=O)c1cc(-c2ccccc2)no1 | 1.7 µM | 81% | 4.7% | 51% | – |
| CN(C)C(=O)CCN1CCc2[nH]c(-c3ccc(F)cc3)cc2C1=O | > 5 µM | 99% | 39% | – | – |
| CN(C)C(=O)CCN1CCn2cc(-c3ccc(F)cc3)cc2C1=O | > 5 µM | 94% | 41% | – | – |
| CN(C)C(=O)CCNC(=O)c1cc(-c2ccccc2F)no1 | > 5 µM | > 100% | 4% | 37% | – |
| CCN1CC2(CC(NC(=O)c3cc(-c4ccccc4)no3)C2)C1 | 5 µM | 100% | 87% | 50% | – |
| CN(C)C(=O)CCNC(=O)C1CSC(c2ccc(F)cc2)N1 (mixture of isomers) | > 5 µM | 90% | 32% | – | – |
| CN(C)C(=O)CCNC(=O)c1cc(C2CCCCC2)no1 | > 5 µM | > 100% | 34% | – | – |

Continued, in another order:

| EC50 [1] | remaining at 0.5 h [2] | remaining at 0.5 h [3] | Structure (SMILES) | Emax [10] | also measured |
| --- | --- | --- | --- | --- | --- |
| > 5 µM | 98% | 36% | CN(C)C(=O)CCN(C)C(=O)c1cc(-c2ccc(F)cc2)no1 | – | – |
| 2.8 µM | 87% | 10% | CN(C)C(=O)CCNC(=O)c1cc(-c2ccc(F)cc2)no1 | 56% | Cmax [4]: 1360 ng/mL; solubility [5]: > 100 µg/mL; half-life [6]: 1 h; AUC(0-t) [7]: 4360 ng·h/mL; inhibition at 10 µM [8]: < 0%; fraction unbound [9]: 0.42; solubility [11]: > 100 µg/mL; inhibition at 10 µM [12]: 5%; inhibition at 10 µM [13]: 7.1%; Activity [14]: Non-Toxic; activity at 0.5 h, 100 µM [15]: 97%; inhibition at 10 µM [16]: 6%; inhibition at 10 µM [17]: 6% |
| > 5 µM | 91% | 35% | CC(CC(=O)N(C)C)NC(=O)c1cc(-c2ccc(F)cc2)no1 (racemic) | – | – |
| 3.9 µM | 76% | 87% | CS(=O)(=O)N1CC2(CC(NC(=O)c3cc(-c4ccccc4)no3)C2)C1 | 45% | – |
| > 5 µM | 61% | 52% | CC(CNC(=O)c1cc(-c2ccc(F)cc2)no1)C(=O)N(C)C (racemic) | – | – |
| 6.1 µM | 84% | 11% | CN(C)C(=O)CNC(=O)c1cc(-c2ccc(F)cc2)no1 | 41% | – |
| > 5 µM | 50% | 17% | CC(=O)N1CC(CNC(=O)c2cc(-c3ccccc3)no2)C1 | – | – |
| > 5 µM | 68% | 69% | CCC(=O)N1CC2(CC(NC(=O)c3cc(-c4ccccc4)no3)C2)C1 | 47% | – |
| 2.9 µM | 84% | 79% | CC(=O)N1CC2(CC(NC(=O)c3cc(-c4ccc(F)cc4)no3)C2)C1 | 64% | half-life [18]: 5.9 h; solubility [5]: > 100 µg/mL; inhibition at 10 µM [8]: < 0%; fraction unbound [9]: 0.28; solubility [11]: > 100 µg/mL; inhibition at 10 µM [12]: 1%; Activity [19]: Non-Toxic; Activity [14]: Non-Toxic; activity at 0.5 h, 100 µM [15]: 98%; inhibition at 10 µM [16]: 1%; inhibition at 10 µM [17]: < 0%; AUC(0-t) [20]: 2350 ng·h/mL; Cmax [21]: 460 ng/mL |
| > 5 µM | 79% | 55% | CC(C)C(=O)N1CC2(CC(NC(=O)c3cc(-c4ccccc4)no3)C2)C1 | 27% | – |
| 2.8 µM | > 100% | 64% | CC(=O)N1CC2(CC(NC(=O)c3cc(-c4ccccc4)no3)C2)C1 | 54% | half-life [18]: 3.7 h; Activity [22]: Toxic; solubility [5]: > 100 µg/mL; inhibition at 10 µM [8]: < 0%; fraction unbound [9]: 0.41; Activity [23]: Active; solubility [11]: > 100 µg/mL; inhibition at 10 µM [12]: 2%; viability at 15 µM [24]: 20%; inhibition at 10 µM [13]: 18%; Activity [14]: Non-Toxic; activity at 0.5 h, 100 µM [15]: 94%; inhibition at 10 µM [16]: 3%; inhibition at 10 µM [17]: < 0%; Activity [25]: Dose-dependent effect; AUC(0-t) [20]: 4210 ng·h/mL; Cmax [21]: 545 ng/mL |
| > 5 µM | – | – | CN(C)CCCNC(=O)c1cc(-c2ccc(F)cc2)no1 | – | – |
| 4.1 µM | – | – | CN(C)C(=O)CCCNC(=O)c1cc(-c2ccc(F)cc2)no1 | 55% | – |
